Where two headings read alike, the source gives them in different places.
Tests used:
L1210 cells = assay: Growth inhibition assay for L1210 cells; assay type: cell-based; conditions: Mus musculus; 72 hours, murine L1210 cells, RPMI 1640 with 10% fetal calf serum
Excerpt: Murine L1210 cells were obtained as intraperitoneal ascites suspensions from BD2F1 mice. […] Cultures in the logarithmic stage of growth were harvested, resuspended and exposed to test compounds at varying concentrations. Growth of controls was monitored to verify that the growth pattern was normal.

[1] = in words; DeGraw et al; cited from earlier work
dihydrofolate reductase = conditions: in words; from prior literature/patents; cited from earlier work
[2] = Cytotoxicity (focus and potency of cytotoxic action); assay type: cell-based; conditions: in words
[3] = biological target: T1, glycinamide ribotide formyl transferase (FGAR) (Lacticaseibacillus casei, UniProt A0AAN1KEB7); assay: Enzyme assay for FGAR (glycinamide ribotide formyl transferase) inhibition; assay type: biochemical, Lactobacillus casei; conditions: in words
T1 sequence (A0AAN1KEB7 1-189): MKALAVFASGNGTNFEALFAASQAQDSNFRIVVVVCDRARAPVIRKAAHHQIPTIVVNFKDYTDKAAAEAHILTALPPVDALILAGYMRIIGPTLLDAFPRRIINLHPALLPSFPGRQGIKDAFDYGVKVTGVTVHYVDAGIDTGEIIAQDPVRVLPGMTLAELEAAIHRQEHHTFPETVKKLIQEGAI
Protocol: Inhibition of the glycinamide ribotide formyl transferase (FGAR) and amino-imidazole carboxamide ribotide formyl transferase (AICAR) enzymes was determined by the following test procedure.
Lactobacillus casei extract protein (20 μg) is incubated with 45 μmol of Tris-HCl buffer; pH 7.5, 90 μmol of 2-mercaptoethanol, 0.20 μmol of α,β-glycine-amideribotide and 50 nmol of (6R)-10-formyltetrahydrofolate in 0.9 ml for 1 minute at 30° C. The formation of tetrahydrofolate is followed by change in the ultraviolet maximum at 298 nm. For assay of inhibition the test compounds are added along with the 6R-10-formyl FAHy and the concentration that inhibits the reaction by 50% (Ic50) is determined.

L1210 leukemia = conditions: in words, Taylor et al, U.S. Pat. No. 4,684,653, cited from earlier work
thymidylate synthase = conditions: in words; J. A. R. Mead et al., Cancer Research (1966); cited from earlier work

| IC50 (L1210 cells) | SMILES | inhibition of dihydrofolate reductase (dihydrofolate reductase) | further results |
| --- | --- | --- | --- |
| 657 nM | Nc1nc2c(c(=O)[nH]1)N(C=O)C(CCc1ccc(C(=O)NC(CCC(=O)O)C(=O)O)cc1)CC2 (stereo not drawn) [Compound 5] |  |  |
| 38.2 nM | CN1c2c(nc(N)[nH]c2=O)CCC1CCc1ccc(C(=O)N[C@@H](CCC(=O)O)C(=O)O)cc1 (stereo partly drawn) [Compound 4, 5-Methyl-8,10-dideaza-5,6,7,8-tetrahydrofolic Acid] |  |  |
|  | Nc1nc2ccc(CCc3ccc(C(=O)N[C@@H](CCC(=O)O)C(=O)O)cc3)nc2c(=O)[nH]1 [8,10-dideazafolic acid] | did not significantly affect DHFR | antifolate activity [1]: active antifolates |
|  | Nc1nc2c(c(=O)[nH]1)CC(CCc1ccc(C(=O)N[C@@H](CCC(=O)O)C(=O)O)cc1)CC2 (stereo partly drawn) [5,8, 10-trideaza FH4] |  | cytotoxic action [2]: devoid of enzyme or cytotoxic action; inhibition of glycinamide ribotide transformylase (GAR transformylase, FGAR) [3]: devoid of enzyme or cytotoxic action |
|  | Nc1nc2c(c(=O)[nH]1)N[C@@H](CCNc1ccc(C(=O)NC(CCC(=O)O)C(=O)O)cc1)CN2 (stereo partly drawn) [tetrahydrohomofolate] |  | inhibition of thymidylate synthetase in vitro (thymidylate synthase): potent inhibitor |
|  | Nc1nc2ccc(CNc3ccc(C(=O)N[C@@H](CCC(=O)O)C(=O)O)cc3)nc2c(=O)[nH]1 [8-deazafolic acid] | did not significantly affect DHFR |  |
| 96.8 nM | Nc1nc2c(c(=O)[nH]1)NC(CCc1ccc(C(=O)N[C@@H](CCC(=O)O)C(=O)O)cc1)CC2 (stereo partly drawn) [Compound 3, 8,10-Dideaza-5,6,7,8-tetrahydrofolic Acid] |  |  |

| SMILES | IC50 (L1210 cells) | inhibition of dihydrofolate reductase (dihydrofolate reductase) | further results |
| --- | --- | --- | --- |
| Nc1nc2c(c(=O)[nH]1)CC(CCc1ccc(C(=O)N[C@@H](CCC(=O)O)C(=O)O)cc1)CN2 (stereo partly drawn) [Compound 2, N-(4-[2-(2-amino-4-hydroxy-5,6,7,8-tetrahydropyrido[2,3-d]pyrimidin-6-yl)-ethyl]benzoyl)-L-glutamic acid] | 42 nM | weak inhibitor of dihydrofolate reductase | cytotoxic action [2]: potent cytotoxin; inhibition of glycinamide ribotide transformylase (GAR transformylase, FGAR) ([3]; listed as DDTHF): potent inhibitor of GAR transformylase; inhibition of glycinamide ribotide transformylase (GAR transformylase, FGAR) ([3]; listed as Taylor et al compound): clearly an inhibitor of FGAR; activity against L1210 leukemia (L1210 leukemia; listed as N-(4-[2-(2-amino-4-hydroxy-5,6,7,8-tetrahydropyrido[2,3-d]pyrimidin-6-yl)- e thy): good activity against L-1210 leukemia which is comparable to methotrexate; activity against L1210 leukemia (L1210 leukemia; listed as N-(4-[2-(2-amino-4-hydroxy-5,6,7,8-tetrahydropyrido[2,3-d]pyrimidin-6-yl)- ethyl): good activity against L1210 leukemia which is comparable to methotrexate |
| CN(Cc1cnc2nc(N)nc(N)c2n1)c1ccc(C(=O)N[C@@H](CCC(=O)O)C(=O)O)cc1 [Compound 1, methotrexate] | 4.3 nM | inhibiting dihydrofolate reductase (DHFR) |  |
